Results taken from PubChem BioAssay (NCI).
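Compound exposure: 48 hours, 5 concentrations, 96-well plates. At the GI50, growth is halved. The concentration for full growth arrest is given as TGI.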

Tests used:
Test in all cases: DTP human tumour cell line panel, 48 h
IGROV1 ovarian = system: IGROV1 ovarian
NCI-H522 lung = system: NCI-H522 lung
786-0 renal = system: 786-0 renal
BT-549 breast = system: BT-549 breast
SF-268 CNS = system: SF-268 CNS
K-562 leukemia = system: K-562 leukemia
SNB-19 CNS = system: SNB-19 CNS
UACC-62 melanoma = system: UACC-62 melanoma
HS 578T breast = system: HS 578T breast
MALME-3M melanoma = system: MALME-3M melanoma
SK-OV-3 ovarian = system: SK-OV-3 ovarian
MDA-MB-231 breast = system: MDA-MB-231 breast
SF-295 CNS = system: SF-295 CNS
RXF 393 renal = system: RXF 393 renal
HOP-62 NSCLC = system: HOP-62 NSCLC
SNB-75 CNS = system: SNB-75 CNS
HOP-92 NSCLC = system: HOP-92 NSCLC
SR leukemia = system: SR leukemia
PC-3 prostate = system: PC-3 prostate
CAKI-1 renal = system: CAKI-1 renal
OVCAR-3 ovarian = system: OVCAR-3 ovarian
HCC-2998 colon = system: HCC-2998 colon
UACC-257 melanoma = system: UACC-257 melanoma
NCI-H460 lung = system: NCI-H460 lung
ACHN renal = system: ACHN renal
EKVX NSCLC = system: EKVX NSCLC
A549 NSCLC = system: A549 NSCLC
OVCAR-5 ovarian = system: OVCAR-5 ovarian
SN12C renal = system: SN12C renal
COLO 205 colon = system: COLO 205 colon
HT29 colon = system: HT29 colon
T-47D breast = system: T-47D breast
HL-60(TB) leukemia = system: HL-60(TB) leukemia
SF-539 CNS = system: SF-539 CNS
SW-620 colon = system: SW-620 colon
MCF7 breast = system: MCF7 breast
OVCAR-4 ovarian = system: OVCAR-4 ovarian
SK-MEL-2 melanoma = system: SK-MEL-2 melanoma
KM12 colon = system: KM12 colon
NCI-H226 lung = system: NCI-H226 lung
UO-31 renal = system: UO-31 renal
U251 CNS = system: U251 CNS
MOLT-4 leukemia = system: MOLT-4 leukemia
TK-10 renal = system: TK-10 renal
SK-MEL-28 melanoma = system: SK-MEL-28 melanoma
HCT-15 colon = system: HCT-15 colon
MDA-MB-435 = system: MDA-MB-435
RPMI-8226 leukemia = system: RPMI-8226 leukemia
A498 renal = system: A498 renal
SK-MEL-5 melanoma = system: SK-MEL-5 melanoma
NCI/ADR-RES ovarian = system: NCI/ADR-RES ovarian
NCI-H23 lung = system: NCI-H23 lung

Which results are given for N#C/C(=C\c1ccc(-c2ccc(Cl)cc2)o1)C(=O)Nc1ncc(Cc2ccc(Br)cc2)s1?
GI50 (IGROV1 ovarian): 2890 nM; TGI (IGROV1 ovarian): > 100000 nM; GI50 (NCI-H522 lung): 2640 nM; TGI (NCI-H522 lung): > 100000 nM; GI50 (786-0 renal): 2450 nM; TGI (786-0 renal): 6800 nM; GI50 (BT-549 breast): 1840 nM; TGI (BT-549 breast): 8690 nM; GI50 (SF-268 CNS): 3730 nM; TGI (SF-268 CNS): > 100000 nM; GI50 (K-562 leukemia): 4470 nM; TGI (K-562 leukemia): > 100000 nM; GI50 (SNB-19 CNS): 3580 nM; TGI (SNB-19 CNS): > 100000 nM; GI50 (UACC-62 melanoma): 2950 nM; TGI (UACC-62 melanoma): > 100000 nM; GI50 (HS 578T breast): 1230 nM; TGI (HS 578T breast): 6270 nM; GI50 (MALME-3M melanoma): 1550 nM; TGI (MALME-3M melanoma): 4260 nM; GI50 (SK-OV-3 ovarian): 3920 nM; TGI (SK-OV-3 ovarian): 25900 nM; GI50 (MDA-MB-231 breast): 3380 nM; TGI (MDA-MB-231 breast): > 100000 nM; GI50 (SF-295 CNS): 5220 nM; TGI (SF-295 CNS): 51500 nM; GI50 (RXF 393 renal): 8850 nM; TGI (RXF 393 renal): 33700 nM; GI50 (HOP-62 NSCLC): 2470 nM; TGI (HOP-62 NSCLC): > 100000 nM; GI50 (SNB-75 CNS): 794 nM; TGI (SNB-75 CNS): 3830 nM; GI50 (HOP-92 NSCLC): 1130 nM; TGI (HOP-92 NSCLC): 8280 nM

CC(=O)OC[C@]12CC[C@@H](C(=O)/C=C/c3cccnc3)[C@@H]1[C@H]1CC[C@@H]3[C@@]4(C)CC[C@H](OC(C)=O)C(C)(C)[C@@H]4CC[C@@]3(C)[C@]1(C)CC2 was tested. Which GI50 (IGROV1 ovarian) did it give?
Its GI50 is 1870 nM.

What about the TGI (IGROV1 ovarian) of the same compound?
The TGI was 4400 nM.

And the GI50 (SR leukemia)?
Its GI50 is 512 nM.

What about the TGI (SR leukemia) of the same compound?
The TGI was greater than 100000 nM.

What about the GI50 (PC-3 prostate) of the same compound?
Its GI50 is 820 nM.

What about the TGI (PC-3 prostate) of the same compound?
The TGI was 4140 nM.

And the GI50 (CAKI-1 renal)?
Its GI50 is 1260 nM.

And the TGI (CAKI-1 renal)?
Its TGI is 2700 nM.

What about the GI50 (OVCAR-3 ovarian) of the same compound?
Its GI50 is 1710 nM.

And the TGI (OVCAR-3 ovarian)?
The TGI was 3290 nM.

And the GI50 (HCC-2998 colon)?
Its GI50 is 1650 nM.

What about the TGI (HCC-2998 colon) of the same compound?
The TGI was 3230 nM.

And the GI50 (UACC-257 melanoma)?
The GI50 was 1900 nM.

What about the TGI (UACC-257 melanoma) of the same compound?
Its TGI is 4680 nM.

And the GI50 (NCI-H460 lung)?
Its GI50 is 1310 nM.

What about the TGI (NCI-H460 lung) of the same compound?
The TGI was 3010 nM.

And the GI50 (ACHN renal)?
The GI50 was 1610 nM.

And the TGI (ACHN renal)?
The TGI was 3020 nM.

And the GI50 (EKVX NSCLC)?
The GI50 was 2180 nM.

And the TGI (EKVX NSCLC)?
Its TGI is 6990 nM.

What about the GI50 (A549 NSCLC) of the same compound?
Its GI50 is 1820 nM.

And the TGI (A549 NSCLC)?
Its TGI is 4690 nM.

And the GI50 (OVCAR-5 ovarian)?
Its GI50 is 1820 nM.

And the TGI (OVCAR-5 ovarian)?
The TGI was 4070 nM.

And the GI50 (SN12C renal)?
The GI50 was 1590 nM.

What about the TGI (SN12C renal) of the same compound?
The TGI was 4350 nM.

What about the GI50 (COLO 205 colon) of the same compound?
The GI50 was 1480 nM.

What about the TGI (COLO 205 colon) of the same compound?
The TGI was 3370 nM.

What about the GI50 (786-0 renal) of the same compound?
The GI50 was 2420 nM.

What about the TGI (786-0 renal) of the same compound?
The TGI was 6710 nM.

What about the GI50 (HT29 colon) of the same compound?
Its GI50 is 1870 nM.

What about the TGI (HT29 colon) of the same compound?
Its TGI is 4740 nM.

What about the GI50 (T-47D breast) of the same compound?
The GI50 was 1060 nM.

And the TGI (T-47D breast)?
The TGI was 3530 nM.

What about the GI50 (HL-60(TB) leukemia) of the same compound?
The GI50 was 450 nM.

What about the TGI (HL-60(TB) leukemia) of the same compound?
The TGI was 3290 nM.

And the GI50 (BT-549 breast)?
The GI50 was 1460 nM.

And the TGI (BT-549 breast)?
Its TGI is 2870 nM.

What about the GI50 (K-562 leukemia) of the same compound?
The GI50 was 903 nM.

What about the TGI (K-562 leukemia) of the same compound?
The TGI was greater than 100000 nM.

What about the GI50 (SF-539 CNS) of the same compound?
Its GI50 is 1590 nM.

And the TGI (SF-539 CNS)?
The TGI was 3070 nM.

What about the GI50 (SNB-19 CNS) of the same compound?
The GI50 was 1890 nM.

And the TGI (SNB-19 CNS)?
Its TGI is 4640 nM.

And the GI50 (SW-620 colon)?
Its GI50 is 1470 nM.

And the TGI (SW-620 colon)?
Its TGI is 3420 nM.

And the GI50 (MCF7 breast)?
Its GI50 is 1100 nM.

And the TGI (MCF7 breast)?
The TGI was 2420 nM.

What about the GI50 (OVCAR-4 ovarian) of the same compound?
The GI50 was 3010 nM.

And the TGI (OVCAR-4 ovarian)?
The TGI was greater than 100000 nM.

What about the GI50 (SK-MEL-2 melanoma) of the same compound?
The GI50 was 1800 nM.

And the TGI (SK-MEL-2 melanoma)?
Its TGI is 3780 nM.

What about the GI50 (KM12 colon) of the same compound?
Its GI50 is 1690 nM.

And the TGI (KM12 colon)?
Its TGI is 4130 nM.

And the GI50 (UACC-62 melanoma)?
The GI50 was 1670 nM.

What about the TGI (UACC-62 melanoma) of the same compound?
Its TGI is 4080 nM.

What about the GI50 (HS 578T breast) of the same compound?
Its GI50 is 2240 nM.

And the TGI (HS 578T breast)?
Its TGI is 6610 nM.

And the GI50 (NCI-H226 lung)?
Its GI50 is 1720 nM.

What about the TGI (NCI-H226 lung) of the same compound?
The TGI was 3850 nM.

And the GI50 (MALME-3M melanoma)?
The GI50 was 1380 nM.

And the TGI (MALME-3M melanoma)?
The TGI was 2880 nM.

What about the GI50 (SK-OV-3 ovarian) of the same compound?
Its GI50 is 3320 nM.

And the TGI (SK-OV-3 ovarian)?
Its TGI is 19000 nM.

And the GI50 (UO-31 renal)?
Its GI50 is 1370 nM.

What about the TGI (UO-31 renal) of the same compound?
Its TGI is 2670 nM.

What about the GI50 (MDA-MB-231 breast) of the same compound?
The GI50 was 1500 nM.

What about the TGI (MDA-MB-231 breast) of the same compound?
The TGI was 3610 nM.

And the GI50 (U251 CNS)?
The GI50 was 1600 nM.

And the TGI (U251 CNS)?
Its TGI is 3350 nM.

What about the GI50 (MOLT-4 leukemia) of the same compound?
Its GI50 is 587 nM.

And the TGI (MOLT-4 leukemia)?
The TGI was 4000 nM.

What about the GI50 (TK-10 renal) of the same compound?
Its GI50 is 1850 nM.

What about the TGI (TK-10 renal) of the same compound?
The TGI was 3630 nM.

And the GI50 (SF-295 CNS)?
The GI50 was 1470 nM.

And the TGI (SF-295 CNS)?
The TGI was 3190 nM.

What about the GI50 (RXF 393 renal) of the same compound?
The GI50 was 1620 nM.

What about the TGI (RXF 393 renal) of the same compound?
The TGI was 3050 nM.

What about the GI50 (HOP-62 NSCLC) of the same compound?
Its GI50 is 2210 nM.

What about the TGI (HOP-62 NSCLC) of the same compound?
The TGI was 6370 nM.

What about the GI50 (SK-MEL-28 melanoma) of the same compound?
Its GI50 is 1440 nM.

And the TGI (SK-MEL-28 melanoma)?
The TGI was 2890 nM.

What about the GI50 (HCT-15 colon) of the same compound?
The GI50 was 1500 nM.

And the TGI (HCT-15 colon)?
The TGI was 3340 nM.

What about the GI50 (SNB-75 CNS) of the same compound?
The GI50 was 1500 nM.

And the TGI (SNB-75 CNS)?
The TGI was 5000 nM.

What about the GI50 (HOP-92 NSCLC) of the same compound?
The GI50 was 1080 nM.

And the TGI (HOP-92 NSCLC)?
Its TGI is 2470 nM.

And the GI50 (MDA-MB-435)?
The GI50 was 1410 nM.

What about the TGI (MDA-MB-435) of the same compound?
The TGI was 3180 nM.

And the GI50 (RPMI-8226 leukemia)?
The GI50 was 839 nM.

What about the TGI (RPMI-8226 leukemia) of the same compound?
Its TGI is 3640 nM.

And the GI50 (A498 renal)?
The GI50 was 1330 nM.

What about the TGI (A498 renal) of the same compound?
Its TGI is 2840 nM.

And the GI50 (SK-MEL-5 melanoma)?
Its GI50 is 1550 nM.

And the TGI (SK-MEL-5 melanoma)?
Its TGI is 2970 nM.

And the GI50 (NCI/ADR-RES ovarian)?
The GI50 was 1990 nM.

What about the TGI (NCI/ADR-RES ovarian) of the same compound?
The TGI was 4910 nM.

And the GI50 (NCI-H23 lung)?
The GI50 was 1860 nM.

What about the TGI (NCI-H23 lung) of the same compound?
The TGI was 4120 nM.
